Consider two substances from PMC7838546, “A Thermostable, Modified Cathelicidin-Derived Peptide With Enhanced Membrane-Active Activity Against Salmonella enterica serovar Typhimurium” (Frontiers in Microbiology, 2021).

Where two headings read alike, the source gives them in different places. Ends that are not written are not given here.

Series [1] deals with S. enterica serovar Typhimurium ATCC 13311. The format is cell-based, Salmonella enterica serovar Typhimurium. As to the method:
In order to induce bacterial resistance to P7, S. enterica serovar Typhimurium ATCC 13311 were cultured for 10 serial passages in MHB in the presence of P7 in a series of concentrations ranging from 0.98 to 250 μg/ml ([Veldhuizen et al., 2013]). In each passage, 50 μl of bacterial samples at sublethal concentrations (the highest peptide concentration displaying 80% growth compared with growth in MHB) were used to determine MIC values by a broth microdilution assay.

Series [2] has as its system S. enterica serovar Typhimurium H1-011 (clinical isolate). The format is cell-based, Salmonella enterica serovar Typhimurium. As to conditions: H1-011, stool, resistant Amp, T, intermediate Amc, Ctx, Cp, NA; for MIC: broth microdilution, 37°C, 24 h. As to the method:
(§1) Salmonella enterica serovar Typhimurium ATCC 13311, 24 drug-resistant foodborne and eleven drug-resistant human borne S. enterica serovar Typhimurium and 4,5,12:i:- isolates (Table 1) were used as test microorganisms. They were previously isolated for molecular characterization in 2014 and kindly provided by Dr. Soraya Chaturongakul (Mahidol University, Thailand) ([Huoy et al., 2014]). All bacteria were cultured in Tryptic Soy Broth (TSB) and incubated at 37°C for 18 h. Mueller Hinton Broth (MHB) was then used to wash and rinse the bacteria. The bacterial suspensions were then diluted to obtain concentrations of 10^7 CFU/ml for inoculations.
(§2) A modified version of the National Committee for Clinical Laboratory Standards (NCCLS) broth microdilution method ([Steinberg et al., 1997]) was used to determine the minimum inhibitory concentrations (MICs) of peptide and compared to that of nisin. Fifty microliters of two-fold serial dilutions of each peptide [0.98–250 μg/ml in 0.01% (v/v) acetic acid and 0.2% (w/v) bovine serum albumin (BSA, Sigma-Aldrich, MO, United States)], were incubated with 50 μl of bacterial suspensions (approximately 10^7 CFU/ml) at 37°C for 24 h in a shaking incubator. MICs were taken as the lowest concentration of peptide at which growth was inhibited as observed by visual inspection. Bacterial cultures without peptides and uncultured broth were used as positive and negative controls, respectively. Minimal bactericidal concentrations (MBCs) were determined using a colony count assay ([Clinical Laboratory Standards Institute [CLSI], 2015]). Fifty microliters of samples from each non-turbid well in the MIC determination experiment was plated on Mueller Hinton Agar (MHA) and colonies were observed after overnight incubation at 37°C. MBCs were designated as the least concentration showing no colony growth on the plate. All of experiments were performed in triplicate.

The test system of series [3] is L929 mouse fibroblast cells. The series can be described thus: Cytotoxicity assay (MTT). As to conditions: 24 h, up to 125 μg/ml. The format is cell-based. As to the method:
The toxicity of P7 peptide on L929 mouse fibroblast cells was assessed by a dye reduction assay using 3-(4,5 dimethylthiazol-2-yl)-2,5-diphenyltetrazolium bromide (MTT). Briefly, 3 × 10^4 L929 cells in RPMI 1640 [supplemented with 10% (v/v) fetal bovine serum, 0.2% (w/v) sodium bicarbonate, 2 mM L-glutamine, 100 U/ml penicillin and […] streptomycin] were seeded into each well of 96-well plates and then incubated in a humidified atmosphere with 5% CO2 at 37°C for 24 h. After the incubation period, the peptide was added to obtain final concentrations of 0.98–250 μg/ml; plates were incubated at 37°C under 5% CO2 for 24 h. RPMI 1640 medium with and without cells were used as positive and negative controls, respectively. After incubation, a final concentration of 0.5 mg/ml MTT (Sigma-Aldrich, MO, United States) was added and incubated at 37°C under 5% CO2 for 4 h. Then, the supernatants were removed from each well and 150 μl of dimethyl sulfoxide (DMSO) was added and mixed thoroughly to solubilize the formazan crystals. Subsequently, absorbance was measured at 570 nm using a microplate reader. The cell viability (%) was calculated according to the formula:
%Cellviability=ODTreated-ODBlank/ODUntreated-ODBlank×100

Series [4] concerns S. enterica serovar 4,5,12:i:- H2-067 (foodborne isolate). The series can be described thus: MIC/MBC, broth microdilution and colony count. The format is cell-based, Salmonella enterica serovar 4,5,12:i:-. As to conditions: H2-067, pork kidney, resistant Amp, T, broth microdilution, 37°C, 24 h. As to the method:
as §1, §2
(In general: In broth dilution the organism is exposed to a series of concentrations in liquid medium.)

For series [5], the system named is S. enterica serovar 4,5,12:i:- H2-046 (foodborne isolate). The series can be described thus: MIC/MBC, broth microdilution and colony count. The format is cell-based, Salmonella enterica serovar 4,5,12:i:-. As to conditions: H2-046, pork heart, resistant Amp, T, intermediate Cp, broth microdilution, 37°C, 24 h. As to the method:
as §1, §2

For series [6], the system named is S. enterica serovar 4,5,12:i:- H2-089 (foodborne isolate). Nature of the series: MIC/MBC, broth microdilution and colony count. Type of series: cell-based, Salmonella enterica serovar 4,5,12:i:-. As to conditions: H2-089, pork intestine, resistant Amp, broth microdilution, 37°C, 24 h. As to the method:
as §1, §2

The subject of series [7] is S. enterica serovar 4,5,12:i:- H2-050 (foodborne isolate). The series can be described thus: MIC/MBC, broth microdilution and colony count. As to conditions: H2-050, pork heart, resistant Amp, broth microdilution, 37°C, 24 h. Type of series: cell-based, Salmonella enterica serovar 4,5,12:i:-. As to the method:
as §1, §2

Series [8] deals with S. enterica serovar 4,5,12:i:- H2-071 (foodborne isolate). Nature of the series: MIC/MBC, broth microdilution and colony count. Type of series: cell-based, Salmonella enterica serovar 4,5,12:i:-. As to conditions: H2-071, pork heart, resistant Amp, Ctx, C, T, SxT, intermediate Cp, broth microdilution, 37°C, 24 h. As to the method:
as §1, §2

The test system of series [9] is S. enterica serovar 4,5,12:i:- H2-047 (foodborne isolate). Nature of the series: MIC/MBC, broth microdilution and colony count. Type of series: cell-based, Salmonella enterica serovar 4,5,12:i:-. As to conditions: H2-047, pork liver, resistant Amp, intermediate Cp, broth microdilution, 37°C, 24 h. As to the method:
as §1, §2

The test system of series [10] is S. enterica serovar 4,5,12:i:- H2-072 (foodborne isolate). The series can be described thus: MIC/MBC, broth microdilution and colony count. Type of series: cell-based, Salmonella enterica serovar 4,5,12:i:-. As to conditions: H2-072, pork intestine, resistant Amp, Ctx, C, T, SxT, intermediate Cp, broth microdilution, 37°C, 24 h. As to the method: as §1, §2
Series [11] deals with S. enterica serovar 4,5,12:i:- H1-025 (clinical isolate). The series can be described thus: MIC/MBC, broth microdilution and colony count. As to conditions: H1-025, urine, resistant Amp, Ctx, C, T, intermediate Cp, NA, SxT, broth microdilution, 37°C, 24 h. The format is cell-based, Salmonella enterica serovar 4,5,12:i:-. As to the method: as §1, §2

Take KIAKRIWKILRR-NH2 [P7]: the MIC in series [1] (serial passage 1), in series [1] (serial passage 2), in series [1] (serial passage 3), in [1] (serial passage 4), in series [1] (serial passage 5) and in [1] (serial passage 6) was 3.91 µg/mL each time. In addition, the MIC in series [1] (serial passage 7) is 3.91 µg/mL; in [1] (serial passage 8), 3.91 µg/mL; in series [1] (serial passage 9), 3.91 µg/mL; in series [1] (serial passage 10) it was 3.91 µg/mL; in series [1] (through all bacterial passages (10 serial passages)) it was 3.91 µg/mL; in series [2], 7.81 (7.81) μg/ml. For the same substance, the MBC in series [2] (colony count on MHA) is given as 7.81 (7.81) μg/ml. In addition, in series [3], the “Cytotoxicity on L929 cells” value was “no cytotoxicity”.
As to “Nisin: authorized food preservative peptide, binds lipid II and forms membrane pores (ITSISLCTPGCKTGALMGCNMKTATCHCSIHVSK; cysteine pairing not given here; also: lantibiotic nisin-A; UniProt P13068 24-57, looked up)”, the MIC in series [4], in series [5], in [6], in [7], in series [8] and in [9] was >1000 µg/mL in each case. Moreover, the MIC in series [10], in series [11] and in [2] was >1000 µg/mL each time.
